Reference: US8143223B2, “Cytoprotection by means of phosphotyrosine” (Eberhard-Karls-Universitaet Tuebingen Universitaetsklinikum, priority 2001, dated 2012)

Assays:
[1] = system: normal skin fibroblasts (HSF6); assay: Clonogenic assay after P-Tyr pretreatment alone, no cell-damaging treatment; format: cell-based, human; conditions: P-Tyr alone for 16 hours at up to 2000 μM, FIG. 2A
Protocol: Human fibroblasts (cell strains HSF1 and HSF6, which are derived from human skin, passages 9 to 15; CCD32, which is derived from embryonic lung tissue, passages 9 to 11) are particularly well suited for investigating the cytoprotective properties of the phosphotyrosine.
The cells are cultured in Dulbecco's modified Eagle's medium (DMEM) supplemented with 10% fetal calf serum (FCS) (GIBCO/BRL, Eggenstein, Germany, article No. 40G7285K) (=normal medium), under standard conditions. […]
(§1) In this connection, a colony is a mass of cells which develops, during the 14 days of culture, from a single cell as a result of consecutive cell divisions. […] If many cells die during the treatment with the cell-damaging factors, only a few colonies are then formed after 14 days; if many cells survive, many colonies can then be counted after the 14 days of culture. […]
(§2) After the 14 days of culture, the cells are fixed, stained and counted as described (Dittmann et al., 1995, loc. cit.). When determining clonogenic survival, the colonies containing more than 50 cells are counted per plate. […]
(§3) The result of such a clonogenic assay is expressed as “relative cytoprotection” or in “% number of the clones”, with the number of the colonies formed in the different assays being related to each other. […]

[2] = system: transformed fibroblast cell line HH4dd; assay: as above; format: cell-based, human; conditions: FIG. 2A
From the text: Transformed human fibroblasts, e.g., the cell line HH4dd (is derived from human skin, passages 65 to 70), are also suitable for the investigation. This cell line is derived from the normal cell strain HH4 and is likewise characterized by a p53 mutation (Dittmann et al., “The radioprotective effect of BBI is associated with the activation of DNA-repair relevant genes”, Int. J. Radiat. Biol. 74, pages 225-230, 1998). HH4dd grows in soft agar, is characterized by its aneuploidy and induces tumors in nude mice. […]
as §1, §2, §3

[3] = system: normal skin fibroblasts (HSF6); assay: Clonogenic assay after P-Tyr pretreatment and ionizing irradiation at 4 Gy, different P-Tyr doses; format: cell-based, human; conditions: FIG. 2B
Protocol: (§4) For the radioactive irradiation, the cells are irradiated with 4 MV photons using a “Linac” (Mevatron^60/Siemens, Erlangen, Germany) using a dose rate of 2 Gy/min at room temperature, as described (Dittmann et al. “Bowman-Birk Proteinase inhibitor modulates radiosensitivity and radiation-induced differentiation of human fibroblasts in culture”, Radiother. Oncol. 34, pages 137-143, 1995).
(§5) The cells, which are cultured as described in Example 1 and which are either incubated with the cell-damaging factors as described in Example 2 or remain untreated as controls, are freed from medium, washed and detached from the substrate using 0.05% trypsin and 0.1% EDTA. For the purpose of analyzing colony formation, the detached cells are plated at a constant cell density of 1500 cells per 78 cm^2 dish. […]
as §1, §2

[4] = system: transformed HH4dd fibroblasts; assay: as above; format: cell-based, human; conditions: FIG. 2B
Protocol: as §4, §5, §1, §2

[5] = system: untransformed fibroblasts (HSF1); assay: Clonogenic assay comparing the radioprotective effect of phosphorylated amino acids, 4 Gy; format: cell-based, human; conditions: 10 μM for 16 hours, then 4 Gy ionizing irradiation, FIG. 3
[6] = system: normal lung fibroblasts (CCD32); assay: Clonogenic assay after P-Tyr pretreatment and ionizing irradiation at 0 to 6 Gy; format: cell-based, human; conditions: 10 μM P-Tyr for 16 hours, up to 6 Gy, FIG. 4
Protocol: as §4, §5, §1, §2

[7] = system: normal skin fibroblasts (HSF6); assay: as above; format: cell-based, human; conditions: 10 μM P-Tyr for 16 hours, up to 6 Gy, FIG. 4
Protocol: as §4, §5, §1, §2

[8] = system: HTB-35 squamous carcinoma cell line; assay: as above; format: cell-based, human; conditions: 10 μM P-Tyr for 16 hours, FIG. 4
From the text: (§6) In addition, it is possible to use the human squamous carcinoma cell lines HTB-35 (ATCC, which is derived from a cervical carcinoma, passage unknown, used in passage 10 after receipt) (Srivastava et al., “The status of the p53 gene in human papilloma virus positive or negative cervical carcinoma cell lines”, Carcinogenesis 13, pages 1273-1275, 1992) and HTB-43 (ATCC, is derived from a hypopharyngeal tumor, passage 124). Both carcinoma cell lines are characterized by a point mutation in the p53 gene (Kim et al., “State of p53, Rb and DCC tumor suppressor genes in human oral cancer cell lines”, Anticancer Research, pages 1405-1413, 1993). […]
as §1, §2

[9] = system: HTB-43 squamous carcinoma cell line; assay: as above; format: cell-based, human; conditions: 10 μM P-Tyr for 16 hours, FIG. 4
From the text: as §6, §1, §2

[10] = system: normal, untransformed fibroblasts (HSF1); assay: Clonogenic assay after P-Tyr pretreatment and UVB irradiation; format: cell-based, human; conditions: 10 μM P-Tyr for 16 hours, then 200 J of UVB, assayed 7 hours later, FIG. 5A
Protocol: (§7) The cells are irradiated with UV light (312 nm) at a dose rate of 450 J/m^2 per minute using a UVB lamp (Bioblock Scientific, Illkirch Cedex, France).
(§8) The cells, which are cultured as described in Example 1 and which are either incubated with the cell-damaging factors as described in Example 2 or remain untreated as controls, are freed from medium, washed and detached from the substrate using 0.05% trypsin and 0.1% EDTA. For the purpose of analyzing colony formation, the detached cells are plated at a constant cell density of 1500 cells per 78 cm^2 dish. The plated cells were then incubated for 14 days in normal medium additionally containing 20% FCS. This period of time enabled colony formation to take place.
as §1, with “divisions. This colony is also termed a clone.” for “divisions.”
as §2

[11] = system: transformed fibroblasts (HH4dd); assay: as above; format: cell-based, human; conditions: 10 μM P-Tyr for 16 hours, then 200 J of UVB, FIG. 5B
Protocol: as §7, §8
as §1, with “divisions. This colony is also termed a clone.” for “divisions.”
as §2

[12] = system: normal, untransformed fibroblasts (HSF1); assay: Clonogenic assay after P-Tyr pretreatment and cisplatin treatment; format: cell-based, human; conditions: 10 μM P-Tyr for 16 hours, then 1 μg of cisplatin/ml for one hour, versus cells not pretreated, FIG. 6A
Protocol: (§9) The incubation with cisplatin take place at a concentration of 1 μg of cisplatin/ml (cis-diammine platinum(II-dichloride); Sigma, Munich, Germany).
as §8
as §1, with “divisions. This colony is also termed a clone.” for “divisions.”
as §2

[13] = system: transformed fibroblasts (HH4dd); assay: as above; format: cell-based, human; conditions: 10 μM P-Tyr for 16 hours, then 1 μg of cisplatin/ml for one hour, FIG. 6B
Protocol: as §9, §8
as §1, with “divisions. This colony is also termed a clone.” for “divisions.”
as §2

[14] = Inventors' investigations of the concentration range of the cytoprotective effect; format: cell-based; conditions: investigations carried out by the inventors
Protocol: In the culture medium according to the invention it is preferred to use phosphotyrosine in a concentration range of from 1 to 100 μM. Thus, investigations carried out by the inventors have shown that the cytoprotective effect of the phosphotyrosine is particularly high in this range.

[15] = system: human breast and kidney carcinoma cells; conditions: Mishra and Hamburger 1993; P-Tyr dose-dependent; run at 1.67 mM, some at 16.7 mM; cited from earlier work
[16] = system: liver carcinoma cell line and arc-transformed NIH 3T3 cells; conditions: Mishra and Hamburger, Cancer Letters 1996; cited from earlier work

SMILES	effect on clonogenic survival [1]	effect on clonogenic survival [2]	P-Tyr concentration at which maximum survival was achieved ([3]; ionizing irradiation at 4 Gy) [µM]	clonogenic survival after ionizing irradiation ([3]; phosphotyrosine plus ionizing irradiation at 4 Gy)	clonogenic survival after ionizing irradiation ([4]; transformed HH4dd fibroblasts, same treatment)	toxicity of the radiation ([4]; transformed fibroblasts, 2000 pM P-Tyr)	radioprotection (clonogenic assay) [5]	clonogenic survival after ionizing irradiation [6]	clonogenic survival after ionizing irradiation [7]	clonogenic survival after ionizing irradiation [8]	clonogenic survival after ionizing irradiation [9]	increase in clonogenic survival after UVB irradiation [10] [%]	effect on clonogenic survival after UVB irradiation [11]	increase in clonogenic survival after cisplatin incubation [12] [%]	clonogenic survival after cisplatin treatment [13]	concentration range in which the cytoprotective effect is particularly high [14] [µM]	growth of human breast and kidney carcinoma cells [15]	cell growth of liver carcinoma cell line and arc-transformed NIH 3T3 cells [16]
N[C@@H](Cc1ccc(OP(=O)(O)O)cc1)C(=O)O [P-Tyr, O-phospho-L-tyrosine (L-3-[4-hydroxy-phenyl]alanine-4′-phosphate)]	does not have any effect on the clonogenic survival	no effect was seen on clonogenic survival	10	clear increase in clonogenic survival	no increase in clonogenic survival was observed	significant increase in the toxicity of the radiation	significant radioprotection	significant increase in clonogenic survival	significant increase in clonogenic survival	significant reduction in clonogenic survival	significant reduction in clonogenic survival	37	no effect on the clonogenic survival	38.7	did not lead to any increase in clonogenic survival	1 to 100	inhibits the growth	inhibit cell growth
C[C@@H](OP(=O)(O)O)[C@H](N)C(=O)O [P-Thr, phosphothreonine, reference compound]							did not result in any radioprotection											
